Reference: US4654348A, “Pyrazolo[4,3-d]pyrimidine derivative, process for its production, antihyperlipidemic agent containing it, its intermediate, and process for the production of the intermediate” (Nissan Chemical Industries Ltd., priority 1984, dated 1987)

How the values were obtained:
[1] = in words; cited from earlier work
[2] = system: emulsion-induced hyperlipidemic rats; test: Test 1: antihyperlipidemic activity in emulsion-induced hyperlipidemic rats (serum Chol, HDL-Chol, liver weight); assay type: in vivo, male S.D. rats; conditions: 3 days, vs control; for change in vivo at 300 mg/kg / inhibition in vivo at 300 mg/kg: Rattus norvegicus, po, 72 h; for change in vivo at 300 mg/kg: read-out: Increase rate of serum HDL-Chol; for inhibition in vivo at 300 mg/kg: read-out: Reduction rate of serum Chol.; for Degree of hepatomegaly (change rate of the liver weight): liver weight per 100 g body weight, 300 mg/kg/day
Protocol: The antihyperlipidemic activity in emulsion-induced hyperlipidemic rats:
Male S.D. rats weighing 80-90 g (4 weeks old) were used. They were divided into groups of 5 to 6 rats each. The test compounds suspended in 0.5% CMC-Na(carboxymethyl cellulose sodium salt) were given to the rats in a daily dose of 4 ml/kg (i.e. 300 mg/kg of the test compounds) via stomach tube every 10:00 a.m. After 30 min., lipids emulsion having the following composition was orally given to the rats in an amount of 2.5 ml per rat.
Cholic acid sodium salt 10.0 g
During the experimental period of 3 days, the rats were fed on a standard commercial diet and water ad libitum. […] The total cholesterol and HDL cholesterol were measured.
The weight of the liver was measured. To the control group, only the aqueous CMC-Na solution and the lipids emulsion were given.
The fractionation of lipoproteins was conducted by a dextran sulfate-MgCl2 precipitation method.
Cholesterol in serum was measured by means of a cholesterol measuring kit (Cholesterol C-Test Wako, manufactured by Wako Junyaku Co., Ltd.), and cholesterol in HDL was measured by means of NC Hi-Set, manufactured by Nippon Chemiphar Co., Ltd.
Further, the reduction rate of Chol was calculated by the following equation. [formula] where A is the amount of serum Chol (mg/dl) of the control group, and B is the amount of serum Chol (mg/dl) of the group to which the therapeutic agent was administered.
Likewise, the increase rate of HDL-Chol was calculated by the following equation. [formula] where C is the amount of serum HDL-Chol (mg/dl) of the control group, and D is the amount of serum HDL-Chol (mg/dl) of the group to which the therapeutic agent was administered.
The degree of hepatomegaly (i.e. the change rate of the liver weight) was calculated by the following equation. [formula] where E is the liver weight (g) per 100 g of the body weight of the control group, and F is the liver weight (g) per 100 g of the body weight of the group to which the therapeutic agent was administered.

[3] = Test 2: Acute toxicity (mortality after seven days); assay type: in vivo; conditions: mouse, in vivo, po, 8000 mg/kg p.o., male ddY mice
Protocol: (§1) The test compounds suspended in 0.5% CMC-Na were administered p.o. to male ddY mice. The acute toxicity was determined based on the mortality after seven days. In respect of the compounds of Examples 1, 9, 10 and 11 of the present invention, the mortality was 0% even at a dose of as high as 8000 mg/kg by oral administration.

[4] = system: animals; conditions: animal experiments; Svoboda and Azarnoff, Cancer Res., 39, 3419 (1979); cited from earlier work
[5] = system: serum lipid; conditions: Science, 193, 903 (1976); J. Lipid Res., 12, 596 (1971); cited from earlier work
[6] = system: male ddY mice; test: Test 2: Acute toxicity (mortality after seven days); assay type: in vivo; conditions: 8000 mg/kg p.o., 10080 min
Protocol: as §1

Row | SMILES | inhibition in vivo at 300 mg/kg ([2]; 300 mg/kg/day via stomach tube) | Degree of hepatomegaly (change rate of the liver weight) [2] | further results
1 | O=C(O)c1cccnc1 [nicotinic acid] |  |  | subsidiary ill effects reported [1]: flashing or gastroenteric troubles
2 | CCCCC/C=C\C/C=C\CCCCCCCCOc1c2ncnc(SCC(=O)OCC)c2nn1C [Example 10, 2-Methyl-3-linoleyloxy-7-ethoxycarbonylmethylthio-pyrazolo[4,3-d]pyrimidine] | 76% | +12% | change in vivo at 300 mg/kg ([2]; 300 mg/kg/day via stomach tube): 13%; mortality at 168 h [3]: 0%
3 | CCCCCCCC/C=C\CCCCCCCCOc1c2ncnc(SCC(=O)OCC)c2nn1C [Example 9, 2-Methyl-3-oleyloxy-7-ethoxycarbonylmethylthio-pyrazolo[4,3-d]pyrimidine] | 66% | +5% | change in vivo at 300 mg/kg ([2]; 300 mg/kg/day via stomach tube): 55%; mortality at 168 h [3]: 0%
4 | CCCCC/C=C\C/C=C\CCCCCCCCOc1c2ncnc(SC(C(=O)OCC)C(C)C)c2nn1C (stereo not drawn) [Example 63, 2-Methyl-3-linoleyloxy-7-(1-ethoxycarbonyl-2-methylpropylthio)pyrazolo[4,3-d]pyrimidine] | 39% |  | 
5 | CCOC(=O)C(C)(C)Oc1ccc(Cl)cc1 [Clofibrate, reference compound] | 44% | +22% | change in vivo at 300 mg/kg ([2]; 300 mg/kg/day via stomach tube): 12%; hepatic carcinoma [4]: brings about hepatic carcinoma on animal experiments; subsidiary ill effects reported [1]: myalgia or hepatic insufficiency, and they are likely to lead to gallstone formation
6 | CCCCCCCCCCCCCCCCOc1c2ncnc(SCC(=O)c3ccccc3)c2nn1C [Example 18, 2-Methyl-3-n-hexadecyloxy-7-benzoylmethylthio-pyrazolo[4,3-d]pyrimidine] | 35% | +4% | change in vivo at 300 mg/kg ([2]; 300 mg/kg/day via stomach tube): 42%
7 | CCC=CCCOc1c2ncnc(SCC(=O)OCC)c2nn1-c1ccccc1 [Example 47, 2-Phenyl-3-(3-hexenyloxy)-7-ethoxycarbonylmethylthio-pyrazolo[4,3-d]pyrimidine] | 10% |  | 
8 | CCCCCCCCCCCCCCCCOc1c2ncnc(SC(C)(C)C(=O)OCC)c2nn1C [Example 26, 2-Methyl-3-n-hexadecyloxy-7-(1-ethoxycarbonyl-1-methyl-ethylthio)pyrazolo [4,3-d]pyrimidine] | 16% |  | 
9 | CCCCC/C=C\C/C=C\CCCCCCCCOc1c2ncnc(SCCCCC(=O)OCC)c2nn1C [Example 60, 2-Methyl-3-linoleyloxy-7-[4-(ethoxycarbonyl)butylthio]-pyrazolo[4,3-d]pyrimidine] | 22% |  | 
10 | CCOC(=O)C(C)(C)Sc1ncnc2c(OCCO)n(C)nc12 [Example 30, 2-Methyl-3-(2-hydroxyethyloxy)-7-(1-ethoxycarbonyl-1-methyl-ethylthio) pyrazolo[4,3-d]pyrimidine] | 28% |  | 
11 | CCCCCCCOc1c2ncnc(SCC(=O)OCC)c2nn1-c1ccccc1 [Example 31, 2-Phenyl-3-n-heptyloxy-7-ethoxycarbonylmethylthio-pyrazolo[4,3-d]pyrimidine] | 51% |  | 
12 | CCCCCCCCC#CCCCCCCCCOc1c2ncnc(SCC(=O)OCC)c2nn1C [Example 44, 2-Methyl-3-(9-octadecynyloxy)-7-ethoxycarbonylmethylthio-pyrazolo[4,3-d]pyrimidine] | 39% |  | 
13 | CCCCCCCCCCCCCCCCOc1c2ncnc(SCC(=O)OCC)c2nn1C [Example 1, 2-Methyl-3-n-hexadecyloxy-7-ethoxycarbonylmethylthio-pyrazolo[4,3-d]pyrimidine] | 58% | +8% | change in vivo at 300 mg/kg ([2]; 300 mg/kg/day via stomach tube): 42%; mortality at 168 h [3]: 0%
14 | C=CCCCCCCCCOc1c2ncnc(SCC(=O)OCC)c2nn1C [Example 45, 2-methyl-3-(9-decenyloxy)-7-ethoxycarbonylmethylthio-pyrazolo[4,3-d]pyrimidine] | 22% |  | 
15 | Nc1ncnc2[nH]ncc12 [1H-pyrazolo[3,4-d]pyrimidine-4-amine] |  |  | serum lipid reduction [5]: function to reduce serum lipid
16 | CCCCCCCC/C=C/CCCCCCCCOc1c2ncnc(SCC(=O)OCC)c2nn1C [Example 70, 2-Methyl-3-elaidyloxy-7-ethoxycarbonylmethylthio-pyrazolo[4,3-d]pyrimidine] | 63% |  | 
17 | CCCCCCCCCCCCCCCCOc1c2ncnc(SCc3ccc(Cl)c(Cl)c3)c2nn1C [Example 20, 2-Methyl-3-n-hexadecyloxy-7-(3,4-dichlorophenylmethylthio)-pyrazolo[4,3-d]pyrimidine] | 19% |  | 
18 | CC/C=C\C/C=C\C/C=C\CCCCCCCCOc1c2ncnc(SCC(=O)OCC)c2nn1C [Example 11, 2-Methyl-3-linolenyloxy-7-ethoxycarbonylmethylthio-pyrazolo[4,3-d]pyrimidine] |  | +20% | Increase rate of serum HDL-Chol ([2]; 300 mg/kg/day via stomach tube): 26%; Reduction rate of serum Chol. ([2]; 300 mg/kg/day via stomach tube): 83%; mortality [6]: 0%
